Experiments:
[1] = target: T1, Voltage-dependent L-type calcium channel subunit alpha-1C (Rattus norvegicus, UniProt P22002); assay: (§1) Inhibition of Cav1.2 calcium current measured using FLIPR in rat aortic A7r5 cells; assay type: functional, cell-based
[2] = target: T2, Voltage-dependent L-type calcium channel subunit alpha-1C (Cavia porcellus, UniProt O35505); assay: Inhibition of Cav1.2 calcium current measured using whole cell patch clamp in guinea pig atrial myocytes; assay type: functional, cell-based, Heart, Cardiac Muscle Cell; parameters: ca sol conc 2 mM, temp 22 pm 1 C
[3] = target: L-type calcium channel alpha 1C/beta 2A (Oryctolagus cuniculus, UniProt P15381+P54288); assay: Inhibition of Cav1.2 calcium current measured using whole cell patch clamp in human HEK293 cells transfected with rabbit L-type calcium channel subunits; assay type: functional, cell-based; parameters: ca sol conc 5 mM, temp room
[4] = target: T3, Voltage-dependent L-type calcium channel subunit alpha-1C (Mus musculus, UniProt Q01815); assay: Inhibition of Cav1.2 calcium current measured using in mouse dorsal root ganglion neuron; assay type: functional, tissue-based; parameters: temp 20-23 C
Target sequence in this assay (Q01815 whole entry, looked up): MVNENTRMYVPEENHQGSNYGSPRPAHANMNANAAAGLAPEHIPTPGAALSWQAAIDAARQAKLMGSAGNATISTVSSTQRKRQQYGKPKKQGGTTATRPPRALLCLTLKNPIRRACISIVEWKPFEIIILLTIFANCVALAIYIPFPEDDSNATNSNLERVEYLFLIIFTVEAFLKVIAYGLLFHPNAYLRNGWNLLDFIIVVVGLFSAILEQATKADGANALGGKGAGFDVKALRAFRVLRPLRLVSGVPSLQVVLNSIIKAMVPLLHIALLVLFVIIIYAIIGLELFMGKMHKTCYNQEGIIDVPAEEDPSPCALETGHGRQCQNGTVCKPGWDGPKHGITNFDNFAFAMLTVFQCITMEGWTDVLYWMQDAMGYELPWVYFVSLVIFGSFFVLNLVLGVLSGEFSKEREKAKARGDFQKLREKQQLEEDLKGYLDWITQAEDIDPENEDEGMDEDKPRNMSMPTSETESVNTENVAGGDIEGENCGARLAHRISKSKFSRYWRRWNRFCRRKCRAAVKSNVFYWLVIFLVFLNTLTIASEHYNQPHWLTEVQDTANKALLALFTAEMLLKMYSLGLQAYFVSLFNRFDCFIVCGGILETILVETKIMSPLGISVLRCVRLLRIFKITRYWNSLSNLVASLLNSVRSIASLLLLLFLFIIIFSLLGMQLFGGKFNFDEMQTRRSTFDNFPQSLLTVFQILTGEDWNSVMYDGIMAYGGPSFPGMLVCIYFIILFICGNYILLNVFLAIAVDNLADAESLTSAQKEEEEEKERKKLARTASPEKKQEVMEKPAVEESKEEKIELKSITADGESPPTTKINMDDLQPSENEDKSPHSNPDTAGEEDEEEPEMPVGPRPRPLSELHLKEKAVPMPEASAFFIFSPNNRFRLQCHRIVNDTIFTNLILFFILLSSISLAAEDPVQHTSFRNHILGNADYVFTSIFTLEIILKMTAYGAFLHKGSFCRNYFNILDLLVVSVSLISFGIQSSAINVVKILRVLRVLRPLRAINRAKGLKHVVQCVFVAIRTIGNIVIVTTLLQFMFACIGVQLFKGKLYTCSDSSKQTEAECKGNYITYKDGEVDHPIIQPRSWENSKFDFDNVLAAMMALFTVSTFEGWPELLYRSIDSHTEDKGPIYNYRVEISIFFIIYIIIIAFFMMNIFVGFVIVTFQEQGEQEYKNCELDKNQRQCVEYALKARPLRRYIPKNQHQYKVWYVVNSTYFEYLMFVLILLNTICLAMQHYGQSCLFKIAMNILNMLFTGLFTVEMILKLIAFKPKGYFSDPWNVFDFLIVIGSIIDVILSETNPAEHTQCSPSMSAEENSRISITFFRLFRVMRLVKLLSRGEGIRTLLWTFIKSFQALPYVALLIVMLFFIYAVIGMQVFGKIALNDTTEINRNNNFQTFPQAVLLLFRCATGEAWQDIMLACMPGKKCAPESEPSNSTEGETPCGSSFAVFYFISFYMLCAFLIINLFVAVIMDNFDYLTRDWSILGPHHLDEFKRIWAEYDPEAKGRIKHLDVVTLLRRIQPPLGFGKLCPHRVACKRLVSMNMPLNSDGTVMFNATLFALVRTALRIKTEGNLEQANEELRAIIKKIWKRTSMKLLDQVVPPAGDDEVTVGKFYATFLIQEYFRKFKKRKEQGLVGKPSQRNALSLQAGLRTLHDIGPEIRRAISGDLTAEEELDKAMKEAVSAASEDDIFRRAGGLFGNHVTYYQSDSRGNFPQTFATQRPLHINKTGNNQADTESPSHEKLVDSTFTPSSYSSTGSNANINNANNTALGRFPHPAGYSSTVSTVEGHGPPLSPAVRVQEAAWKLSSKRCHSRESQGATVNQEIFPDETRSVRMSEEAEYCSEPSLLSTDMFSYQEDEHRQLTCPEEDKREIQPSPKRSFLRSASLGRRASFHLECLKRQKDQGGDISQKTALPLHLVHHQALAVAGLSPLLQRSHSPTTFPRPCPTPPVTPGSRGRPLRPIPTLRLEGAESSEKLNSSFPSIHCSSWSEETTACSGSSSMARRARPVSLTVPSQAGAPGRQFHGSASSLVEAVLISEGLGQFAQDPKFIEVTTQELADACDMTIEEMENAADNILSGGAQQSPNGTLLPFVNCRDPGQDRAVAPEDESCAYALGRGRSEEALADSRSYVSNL

[5] = target: T1, Voltage-dependent L-type calcium channel subunit alpha-1C; assay: (§2) Inhibition of Cav1.2 calcium current measured using whole cell patch clamp in rat ventricular myocytes; assay type: functional, cell-based, Heart, Ventricular myocyte; parameters: ca sol conc 1.8 mM, temp 25-27 C
[6] = target: Voltage-dependent L-type calcium channel subunit alpha-1C (Oryctolagus cuniculus, UniProt P15381); assay: Inhibition of Cav1.2 calcium current measured using whole cell patch clamp in rabbit ventricular myocytes; assay type: functional, cell-based, Heart, Ventricular myocyte; parameters: ca sol conc 1.8 mM, temp 34 C
[7] = target: T1, Voltage-dependent L-type calcium channel subunit alpha-1C; assay: as §2; assay type: functional, cell-based, Heart, Ventricular myocyte; parameters: ca sol conc 1 mM, temp 22-25 C
[8] = target: T2, Voltage-dependent L-type calcium channel subunit alpha-1C; assay: (§3) Inhibition of Cav1.2 calcium current measured using whole cell patch clamp in guinea pig ventricular myocytes; assay type: functional, cell-based, Heart, Ventricular myocyte; parameters: ca sol conc 1.8 mM
[9] = target: T2, Voltage-dependent L-type calcium channel subunit alpha-1C; assay: as §3; assay type: functional, cell-based, Heart, Ventricular myocyte; parameters: ca sol conc 1.8 mM, temp 37 C
[10] = target: T1, Voltage-dependent L-type calcium channel subunit alpha-1C; assay: Inhibition of Cav1.2 calcium current measured using whole cell patch clamp in rat myocyte; assay type: functional, Heart, Cardiac Muscle Cell; parameters: ca sol conc 1.8 mM, temp 20-25 C
[11] = target: T2, Voltage-dependent L-type calcium channel subunit alpha-1C; assay: as §3; assay type: functional, cell-based, Heart, Ventricular myocyte; parameters: ca sol conc 1.8 mM, temp 24-26 C
[12] = target: T3, Voltage-dependent L-type calcium channel subunit alpha-1C; assay: (§4) Inhibition of Cav1.2 calcium current measured using whole cell patch clamp in mouse ventricular myocytes; assay type: functional, cell-based, Heart, Ventricular myocyte; parameters: ca sol conc 2 mM, temp room
Target sequence in this assay (Q01815 whole entry): as the sequence (Q01815 whole entry, looked up) above

[13] = target: T3, Voltage-dependent L-type calcium channel subunit alpha-1C; assay: as §4; assay type: functional, cell-based, Heart, Ventricular myocyte; parameters: ca sol conc 2 mM, temp room; remark: listed apart in the source
Target sequence in this assay (Q01815 whole entry): as the sequence (Q01815 whole entry, looked up) above

[14] = target: T1, Voltage-dependent L-type calcium channel subunit alpha-1C; assay: as §2; assay type: functional, cell-based, Heart, Ventricular myocyte; parameters: ca sol conc 1.8 mM, temp 25 C
[15] = target: T2, Voltage-dependent L-type calcium channel subunit alpha-1C; assay: as §3; assay type: functional, cell-based, Heart, Ventricular myocyte; parameters: ca sol conc 1.8 mM, temp 36 C
[16] = target: T2, Voltage-dependent L-type calcium channel subunit alpha-1C; assay: as §3; assay type: functional, cell-based, Heart, Ventricular myocyte; parameters: ca sol conc 1.8 mM; remark: listed apart in the source
[17] = target: T1, Voltage-dependent L-type calcium channel subunit alpha-1C; assay: as §1; assay type: functional, cell-based; remark: listed apart in the source
[18] = target: T1, Voltage-dependent L-type calcium channel subunit alpha-1C; assay: as §2; assay type: functional, cell-based, Heart, Ventricular myocyte; parameters: ca sol conc 2 mM, temp 22-24 C
[19] = target: T1, Voltage-dependent L-type calcium channel subunit alpha-1C; assay: Inhibition of Cav1.2 calcium current measured using whole cell patch clamp in rat Artery myocytes; assay type: functional, cell-based, Tail; parameters: ca sol conc 5 mM, temp 20-22 C
[20] = target: T2, Voltage-dependent L-type calcium channel subunit alpha-1C; assay: as §3; assay type: functional, cell-based, Heart, Ventricular myocyte; parameters: ca sol conc 1.8 mM, temp 19 C
[21] = target: T2, Voltage-dependent L-type calcium channel subunit alpha-1C; assay: as §3; assay type: functional, cell-based, Heart, Ventricular myocyte; parameters: ca sol conc 1.8 mM, temp 25-27 C
[22] = target: T2, Voltage-dependent L-type calcium channel subunit alpha-1C; assay: as §3; assay type: functional, cell-based, Heart, Ventricular myocyte; parameters: ca sol conc 1.8 mM, temp 35-36 C
[23] = target: T2, Voltage-dependent L-type calcium channel subunit alpha-1C; assay: as §3; assay type: functional, cell-based, Heart, Ventricular myocyte; parameters: ca sol conc 2 mM, temp 21-23 C
[24] = target: T2, Voltage-dependent L-type calcium channel subunit alpha-1C; assay: as §3; assay type: functional, cell-based, Heart, Ventricular myocyte; parameters: ca sol conc 1.2 mM, temp 24 pm 1 C
[25] = target: T1, Voltage-dependent L-type calcium channel subunit alpha-1C; assay: as §2; assay type: functional, cell-based, Heart, Ventricular myocyte; parameters: ca sol conc 1.8 mM, temp 22-26 C
[26] = target: T1, Voltage-dependent L-type calcium channel subunit alpha-1C; assay: as §2; assay type: functional, cell-based, Heart, Ventricular myocyte; parameters: ca sol conc 2 mM, temp room
[27] = target: T2, Voltage-dependent L-type calcium channel subunit alpha-1C; assay: as §3; assay type: functional, cell-based, Heart, Ventricular myocyte; parameters: ca sol conc 1.8 mM, temp room
[28] = target: T3, Voltage-dependent L-type calcium channel subunit alpha-1C; assay: as §4; assay type: functional, cell-based, Heart, Ventricular myocyte; parameters: ca sol conc 1.8 mM, temp room
Target sequence in this assay (Q01815 whole entry): as the sequence (Q01815 whole entry, looked up) above

[29] = target: T3, Voltage-dependent L-type calcium channel subunit alpha-1C; assay: as §4; assay type: functional, cell-based, Heart, Ventricular myocyte; parameters: ca sol conc 2.5 mM, temp 22-24 C
Target sequence in this assay (Q01815 whole entry): as the sequence (Q01815 whole entry, looked up) above

[30] = target: T2, Voltage-dependent L-type calcium channel subunit alpha-1C; assay: as §3; assay type: functional, cell-based, Heart, Ventricular myocyte; parameters: ca sol conc 5 mM, temp 20-22 C

T1 sequence (P22002 whole entry): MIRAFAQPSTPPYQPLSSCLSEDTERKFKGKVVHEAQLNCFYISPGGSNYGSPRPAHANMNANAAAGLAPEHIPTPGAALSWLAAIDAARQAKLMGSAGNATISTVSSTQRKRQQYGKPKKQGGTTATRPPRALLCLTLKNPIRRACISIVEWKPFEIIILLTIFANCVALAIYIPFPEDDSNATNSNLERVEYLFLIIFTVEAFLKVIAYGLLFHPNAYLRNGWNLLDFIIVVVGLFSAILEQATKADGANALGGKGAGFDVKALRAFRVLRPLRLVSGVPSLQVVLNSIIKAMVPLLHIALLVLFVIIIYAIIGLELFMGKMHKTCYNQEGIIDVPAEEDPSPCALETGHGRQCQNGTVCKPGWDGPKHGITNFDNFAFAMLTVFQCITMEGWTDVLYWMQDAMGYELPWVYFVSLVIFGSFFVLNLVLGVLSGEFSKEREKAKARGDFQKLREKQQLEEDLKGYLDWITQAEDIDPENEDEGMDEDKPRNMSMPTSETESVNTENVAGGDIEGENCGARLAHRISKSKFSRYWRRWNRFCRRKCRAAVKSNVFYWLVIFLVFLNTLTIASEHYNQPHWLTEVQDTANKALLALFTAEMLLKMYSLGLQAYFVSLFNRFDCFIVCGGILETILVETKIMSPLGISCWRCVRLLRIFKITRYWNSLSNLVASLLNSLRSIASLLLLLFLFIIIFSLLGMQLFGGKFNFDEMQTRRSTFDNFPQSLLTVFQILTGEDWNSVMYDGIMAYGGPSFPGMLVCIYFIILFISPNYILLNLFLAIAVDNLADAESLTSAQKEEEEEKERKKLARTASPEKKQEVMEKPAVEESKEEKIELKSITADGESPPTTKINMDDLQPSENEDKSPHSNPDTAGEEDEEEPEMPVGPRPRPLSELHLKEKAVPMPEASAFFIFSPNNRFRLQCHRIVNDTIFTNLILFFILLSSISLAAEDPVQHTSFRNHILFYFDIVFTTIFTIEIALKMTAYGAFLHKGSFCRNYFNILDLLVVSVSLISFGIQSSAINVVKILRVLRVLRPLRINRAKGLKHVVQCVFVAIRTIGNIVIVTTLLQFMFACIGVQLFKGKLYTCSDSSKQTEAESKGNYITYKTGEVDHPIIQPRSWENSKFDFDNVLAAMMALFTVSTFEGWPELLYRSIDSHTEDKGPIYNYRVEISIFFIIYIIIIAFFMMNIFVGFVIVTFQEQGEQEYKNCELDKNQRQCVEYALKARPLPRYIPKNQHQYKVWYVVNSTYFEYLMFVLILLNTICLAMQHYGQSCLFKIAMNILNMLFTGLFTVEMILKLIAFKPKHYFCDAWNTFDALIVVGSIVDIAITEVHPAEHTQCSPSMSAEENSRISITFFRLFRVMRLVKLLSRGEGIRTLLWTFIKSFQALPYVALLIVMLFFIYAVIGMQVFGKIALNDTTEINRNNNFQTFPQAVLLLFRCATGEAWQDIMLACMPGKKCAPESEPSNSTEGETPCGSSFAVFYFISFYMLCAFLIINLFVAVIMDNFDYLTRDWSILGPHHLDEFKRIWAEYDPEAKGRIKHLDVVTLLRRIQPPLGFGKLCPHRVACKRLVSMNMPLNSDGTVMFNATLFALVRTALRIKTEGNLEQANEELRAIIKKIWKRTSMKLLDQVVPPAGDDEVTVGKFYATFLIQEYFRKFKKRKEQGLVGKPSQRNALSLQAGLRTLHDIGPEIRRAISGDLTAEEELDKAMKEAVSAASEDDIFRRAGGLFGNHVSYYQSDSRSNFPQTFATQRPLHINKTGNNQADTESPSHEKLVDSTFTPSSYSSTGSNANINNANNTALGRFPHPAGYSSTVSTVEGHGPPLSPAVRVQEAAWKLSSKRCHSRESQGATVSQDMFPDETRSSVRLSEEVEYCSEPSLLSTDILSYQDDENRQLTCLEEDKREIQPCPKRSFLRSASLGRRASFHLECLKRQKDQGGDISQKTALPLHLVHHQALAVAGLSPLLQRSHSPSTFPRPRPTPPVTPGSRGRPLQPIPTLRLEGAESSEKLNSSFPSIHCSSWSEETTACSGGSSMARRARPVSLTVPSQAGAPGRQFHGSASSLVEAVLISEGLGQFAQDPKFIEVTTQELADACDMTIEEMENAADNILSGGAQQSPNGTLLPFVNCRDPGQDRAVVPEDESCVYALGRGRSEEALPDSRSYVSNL

With `COCCOc1ccc(F)cc1CCN1CCC(CC(=O)N[C@@H](c2ccc(F)cc2)C(C)C)CC1` the IC50 [1] was 3.1 µM.

`CCCC(C)C1(CC)C(=O)NC(=S)NC1=O` (stereo not drawn) [THIOPENTAL] showed an IC50 [2] of 0.28 µM.

In the case of `O=c1cc(N2CCOCC2)oc2c(-c3ccccc3)cccc12` [LY-294002], the IC50 [3] is reported as 12 µM.

`CC(C)(c1ccc(O)cc1)c1ccc(O)cc1` [BISPHENOL A] was tested, and the IC50 [4] was 35 µM.

`COc1ccc2c(c1)c(C1=C(c3c[nH]c4ccccc34)C(=O)NC1=O)cn2CCCN(C)C` was tested, and the IC50 [3] was 20 µM.

With `COc1ccc2c(c1OC)[C@@H]1Cc3cc4c(cc3[C@H](C2)N1C)OCO4` the IC50 [5] was 6.6 µM.

Work on `COc1ccccc1OCCNCC(O)COc1cccc2[nH]c3ccccc3c12` (stereo not drawn) [CARVEDILOL] yielded an IC50 [6] of 3.59 µM.

With `COCCOc1cc(F)ccc1CCN1CCC(CC(=O)N[C@@H](c2ccc(F)cc2)C(C)C)CC1` the IC50 [1] was 1.9 µM.

`O=C(/C=C/c1ccc(O)c(O)c1/C=C/c1ccc(O)c(O)c1)O[C@H](Cc1ccc(O)c(O)c1)C(=O)O` [SALVIANOLIC ACID A] gave an IC50 [7] of 38.3 µM.

With `CCC(C)c1ccccc1OC(=O)NC` (stereo not drawn) [FENOBUCARB] the IC50 [8] was 520 µM.

`COC(=O)C1=CCCN(C)C1` [ARECOLINE] was tested, and the IC50 [9] was 33.7 µM.

With `CC(=O)N1CCN(c2ccc(OCC3COC(Cn4ccnc4)(c4ccc(Cl)cc4Cl)O3)cc2)CC1` (stereo not drawn) [KETOCONAZOLE] the IC50 [10] was 3.5 µM.

Work on `CC(C)[C@@H](NC(=O)CC1CCN(CCc2ccccc2)CC1)c1ccc(F)cc1` yielded an IC50 [1] of 10 µM.

`CC(=O)N(CCOc1cccc2ccccc12)CCc1ccc(NS(C)(=O)=O)cc1` showed an IC50 [11] of 0.909 µM.

In the case of `COc1ccc(CCN(C)CCCOc2ccc(S(=O)(=O)c3c(C(C)C)c4ccccc4n3C)cc2)cc1OC`, the IC50 [12] is reported as 0.0041 µM, the IC50 [13] is reported as 0.033 µM and the IC50 [14] is reported as 0.024 µM.

Molecule `CCCCc1oc2ccc(NS(C)(=O)=O)cc2c1C(=O)c1ccc(OCCCN(CCCC)CCCC)cc1` [DRONEDARONE] has an IC50 [15] of 0.4 µM.

`CN1CCC(=C2c3ccccc3C=Cc3ccccc32)CC1` [CYPROHEPTADINE] gave an IC50 [8] of 42.2 µM and an IC50 [16] of 7.75 µM.

For `COc1cccc(CCN2CCC(CC(=O)N[C@@H](c3ccc(F)cc3)C(C)C)CC2)c1`, the IC50 [1] was 2.2 µM and the IC50 [17] was 7 µM.

Molecule `C=C(C)[C@@H]1CCC(C)=C[C@H]1c1c(O)cc(CCCCC)cc1O` [CANNABIDIOL] has an IC50 [18] of 0.1 µM.

In the case of `O=c1c(O)c(-c2ccc(O)cc2)oc2cc(O)ccc12` [RESOKAEMPFEROL], the IC50 [19] is reported as 27.5 µM.

For `COc1ccc(CCNC(C)COc2c(C)cccc2C)cc1OC` (stereo not drawn), the IC50 [20] was 28.5 µM.

For `COc1ccc2c(=O)c3c(n(Cc4ccccc4)c2c1)OCC3=O`, the IC50 [21] was 4 µM.

`CC(C)C(CNC(=O)C1CCN(CCc2ccccc2)CC1)c1ccc(F)cc1` (stereo not drawn) showed an IC50 [1] of 3.9 µM.

`O=c1c(-c2ccc(O)cc2)coc2cc(O)cc(O)c12` [GENISTEIN] was tested, and the IC50 [19] was 57.5 µM.

Work on `CCN(CC)CC#CC(C)(C)OC(=O)C(O)(c1ccccc1)C1CCCCC1` (stereo not drawn) [TEMIVERINE] yielded an IC50 [22] of 27 µM.

Work on `CCCN1CCCC[C@H]1C(=O)Nc1c(C)cccc1C` [ROPIVACAINE] yielded an IC50 [23] of 430 µM.

Molecule `CCN(CC)CCCC(C)Nc1c2ccc(Cl)cc2nc2ccc(OC)cc12` (stereo not drawn) [QUINACRINE] has an IC50 [24] of 5.6 µM.

`Oc1c(CN2CCCC2)cc(Nc2ncnc3ccccc23)cc1CN1CCCC1` [CHANGROLIN] gave an IC50 [25] of 74.7 µM.

Work on `COCCOc1ccccc1CCN1CCC(CC(=O)N[C@@H](c2ccc(F)cc2)C(C)C)CC1` yielded an IC50 [26] of 38 µM.

With `Cc1cc2c(OCC(O)CN3CCN(C(c4ccccc4)c4ccccc4)CC3)cccc2[nH]1` (stereo not drawn) the IC50 [27] was 3.6 µM.

With `CCN1CCC(CC(NC(=O)c2ccc([N+](=O)[O-])cc2)c2ccc(F)cc2)CC1` (stereo not drawn) the IC50 [28] was 100 µM.

`CCC(CC)(CNC(=O)C1CCN(CCc2ccccc2)CC1)c1ccc(F)cc1` was tested, and the IC50 [1] was 4.4 µM.

For `CCC(C)(C)C(=O)O[C@H]1C[C@@H](C)C=C2C=C[C@H](C)[C@H](CC[C@@H](O)C[C@@H](O)CC(=O)O)[C@H]21` [TENIVASTATIN], the IC50 [29] was 3.9 µM.

Molecule `O=c1cc(-c2ccccc2O)oc2cc(O)cc(O)c12` has an IC50 [19] of 45.1 µM.

`O=C1CC(c2ccc(O)cc2)Oc2cc(O)cc(O)c21` (racemic) was tested, and the IC50 [19] was 100 µM.

`O=c1cc(-c2ccccc2)oc2cc(O)c(O)c(O)c12` [BAICALEIN] was tested, and the IC50 [19] was 85.1 µM.

`N#Cc1cc2c(OCC(O)CN3CCN(C(c4ccccc4)c4ccccc4)CC3)cccc2[nH]1` (stereo not drawn) gave an IC50 [27] of 1.1 µM.

With `COc1ccc2c(c1)CN(C(=O)CCN1CCC(Cc3ccccc3)CC1)CCS2` the IC50 [8] was 3 µM.

`CC1=C(C(=O)OC(C)C)[C@H](c2cccc3nonc23)C([N+](=O)[O-])=C(C)N1` (mixture of isomers) gave an IC50 [30] of 0.08 µM.
